Earlier results, collected in patent US20230142073A1 (priority 2020, published 2023).
Where two headings read alike, the source gives them in different places.

Key:
[1] = test system: SARS-CoV-2 infected patients presenting with Severe Acute Respiratory Distress Syndrome (SARDS); settings: 10 ppm NO inhaled; baseline 102
[2] = test system: SARS-CoV-2 infected patients, exhibiting Acute Respiratory Distress Syndrome (ARDS); settings: iv 10 μg/kg/min, mean maintenance 1.65 μg/kg/min
Sars-Cov-2 ARDS patients = settings: iv 2 μg/kg/min; in the following 6 hours; 19 patients; baseline 79; p-value=0.001
[3] = test system: person with a SARS-CoV-2 infection and Severe Acute Respiratory Distress Syndrome (SARDS); settings: iv 4 μg/kg/min; for PaO2: baseline 63; for PaO2/FiO2: baseline 70
[4] = test system: human patients with a coronavirus (SARS-CoV-2) infection
[5] = 1 hour after almitrine infusion
[6] = 2 hours after almitrine infusion
[7] = 12 hours after almitrine infusion
[8] = 10 patients, iv 4 then 12 μg/kg/min

SMILES	median PaO2/FiO2 after NO [1] [mmHg]	lower mortality ([2]; 32 patients) [%]	side-effects ([2]; 32 patients)	responders (PaO2 increase of more than 20%) ([2]; 32 patients, NO inhaled in 75% of cases) [%]	mean increase in PaO2 ([2]; responders) [%]	median PaO2/FiO2 after almitrine (Sars-Cov-2 ARDS patients) [mmHg]	PaO2 [3, 5] [mm Hg]	PaO2/FiO2 [3, 5] [mmHg]	PaO2 [3, 6] [mm Hg]	PaO2/FiO2 [3, 6] [mmHg]	PaO2 [3, 7] [mm Hg]	PaO2/FiO2 [3, 7] [mmHg]	median PaO2/FiO2 ratio after almitrine administration ([4]; 10 patients, 135 before almitrine, iv 4 then 12 μg/kg/min) [mmHg]	increase of median PaO2/FiO2 ratio ([4]; 10 patients, from 135 before to 215 after almitrine) [mmHg]	cardiac index [4, 8]	right atrial pressures [4, 8]	number of patients with increased PaO2/FiO2 ([4]; out of 10 human patients (median age 70), iv 4 μg/kg/min for 30-45 min, then 12 μg/kg/min for 30-45 min, intubated and ventilated)
[N]=O [NO, Nitric Oxide]	124																
C=CCNc1nc(NCC=C)nc(N2CCN(C(c3ccc(F)cc3)c3ccc(F)cc3)CC2)n1.CS(=O)(=O)O [almitrine dimesylate, 6-[4-[bis(4-fluorophenyl)methyl]piperazin-1-yl]-2-N,4-N-bis(prop-2-enyl)-1,3,5-triazine-2,4-diamine methanesulfonic acid]		16	no significant side-effects	66	67	117	67	84	130	216	170	283	215	80	not affected	not affected	8
